Measurements taken from ChEMBL document CHEMBL4619789, “RAF Kinases in Cancer: A Moving Target and Degradation Therapy” (ACS Med Chem Lett, 2020).

Key:
[1] = system: A-375; assay: Protac activity at E3 ubiquitin-protein ligase/B-raf V600E mutant in human A375 cells assessed as induction of B-raf V600E degradation measured after 72 hrs by Western cellular assay relative to control; assay type: cell-based
[2] = Protac activity at E3 ubiquitin-protein ligase/B-raf V600E mutant in human A375 cells assessed as induction of B-raf V600E degradation measured after 72 hrs by Western cellular assay; assay type: cell-based; details: A-375, 72 h

Row | Structure (SMILES) | %max [1] [%] | DC50 [2] [nM]
1 | O=C1CCC(N2Cc3cc(N4CCN(Cc5ccc(-c6cnc7[nH]cc(C(=O)c8c(F)ccc(NS(=O)(=O)N9CC[C@@H](F)C9)c8F)c7c6)cc5)CC4)ccc3C2=O)C(=O)N1 (some centres undefined) | > 70 | < 10
2 | Cc1ncsc1-c1ccc(CNC(=O)[C@@H]2C[C@@H](O)CN2C(=O)[C@@H](NC(=O)CN2CCC(CN3CCN(c4ccc(-c5cnc6[nH]cc(C(=O)c7c(F)ccc(NS(=O)(=O)N8CC[C@@H](F)C8)c7F)c6c5)cc4)CC3)CC2)C(C)(C)C)cc1 | > 70 | < 10
3 | Cc1ncsc1-c1ccc(CNC(=O)[C@@H]2C[C@@H](O)CN2C(=O)[C@@H](NC(=O)CN2CCN(CC3CCN(c4ccc(-c5cnc6[nH]cc(C(=O)c7c(F)ccc(NS(=O)(=O)N8CC[C@@H](F)C8)c7F)c6c5)cc4)CC3)CC2)C(C)(C)C)cc1 | > 70 | < 10
4 | Cc1ncsc1-c1ccc([C@H](C)NC(=O)[C@@H]2C[C@@H](O)CN2C(=O)[C@@H](NC(=O)CN2CCC(CN3CCN(c4ccc(-c5cnc6[nH]cc(C(=O)c7c(F)ccc(NS(=O)(=O)N8CC[C@@H](F)C8)c7F)c6c5)cc4)CC3)CC2)C(C)(C)C)cc1 | > 70 | < 10
5 | O=C1CCC(N2Cc3cc(N4CC(OCC5CCN(c6ccc(-c7cnc8[nH]cc(C(=O)c9c(F)ccc(NS(=O)(=O)N%10CC[C@@H](F)C%10)c9F)c8c7)cc6)CC5)C4)ccc3C2=O)C(=O)N1 (some centres undefined) | < 70 | < 10
6 | O=C1CCC(N2Cc3cc(N4CC[C@@H](N5CCN(c6ccc(-c7cnc8[nH]cc(C(=O)c9c(F)ccc(NS(=O)(=O)N%10CC[C@@H](F)C%10)c9F)c8c7)cc6)CC5)C4)ccc3C2=O)C(=O)N1 (some centres undefined) | < 70 | < 10
7 | O=C1CCC(N2Cc3cc(N4CC(N5CCN(c6ccc(-c7cnc8[nH]cc(C(=O)c9c(F)ccc(NS(=O)(=O)N%10CC[C@@H](F)C%10)c9F)c8c7)cc6)CC5)C4)ccc3C2=O)C(=O)N1 (some centres undefined) | < 70 | < 10
8 | Cc1ncsc1-c1ccc([C@H](CO)NC(=O)[C@@H]2C[C@@H](O)CN2C(=O)[C@@H](c2cc(N3CCC(N4CCN(c5ccc(-c6cnc7[nH]cc(C(=O)c8c(F)ccc(NS(=O)(=O)N9CC[C@@H](F)C9)c8F)c7c6)cc5)CC4)CC3)no2)C(C)C)cc1 | > 70 | 10 to 50
9 | Cc1ncsc1-c1ccc(CNC(=O)[C@@H]2C[C@@H](O)CN2C(=O)[C@@H](NC(=O)CN2CC(N3CCN(c4ccc(-c5cnc6[nH]cc(C(=O)c7c(F)ccc(NS(=O)(=O)N8CC[C@@H](F)C8)c7F)c6c5)cc4)CC3)C2)C(C)(C)C)cc1 | > 70 | < 10
10 | O=C1CCC(N2Cc3cc(CCCN4CCC5(C4)CN(c4ccc(-c6cnc7[nH]cc(C(=O)c8c(F)ccc(NS(=O)(=O)N9CC[C@@H](F)C9)c8F)c7c6)cc4)C5)ccc3C2=O)C(=O)N1 (some centres undefined) | < 70 | < 10
11 | Cc1ncsc1-c1ccc(CNC(=O)[C@@H]2C[C@@H](O)CN2C(=O)[C@@H](c2cc(OCCN3CCN(c4ccc(-c5cnc6[nH]cc(C(=O)c7c(F)ccc(NS(=O)(=O)N8CC[C@@H](F)C8)c7F)c6c5)cc4)CC3)no2)C(C)C)cc1 | > 70 | < 10
12 | O=C1CCC(N2Cc3cc(/C=C/CN4CCN(c5ccc(-c6cnc7[nH]cc(C(=O)c8c(F)ccc(NS(=O)(=O)N9CC[C@@H](F)C9)c8F)c7c6)cc5)CC4)ccc3C2=O)C(=O)N1 (some centres undefined) | < 70 | < 10
